# In patent US20250263441A1 (Metanovas Biotech Inc., priority 2024, published 2025):
# Values joined by “and” are separate entries in the source; they are usually repeats but may differ in a detail not shown here. Equal values may be shown once.
# Legend:
# Assay type in all cases: cell-based
# Escherichia coli = test: Minimum inhibitory concentration on Escherichia coli (liquid culture); conditions: 37° C., 24 to 48 hours
# Protocol: Primary screening of liquid culture: the peptides in Examples 1 to 2 were dissolved in pure water to a concentration of 100 μg/mL. Using a micropipette, 10 μL of the peptides were added to a new 96-well plate in order from left to right, starting from the second compartment. Positive and negative controls were established for use. The 96-well plates were arranged vertically, and the peptide concentrations in the control groups were the same as those of the antimicrobial peptides. The control groups included: pure water and bacteria, antimicrobial peptide FK13 and bacteria, antimicrobial peptide HPA3NT3 and bacteria, and ciprofloxacin and bacteria. An aseptic medium was used.
# If a 96-deep-well plate was used to culture bacteria, an additional 100 μL of sterile medium was added to all wells.
# E. coli was inoculated in LB medium with normal oxygen concentration (21%) for 48 hours. E. coli clones were picked and incubated in LB medium at 37° C. with normal oxygen concentration (21%) for an additional 48 hours. The bacterial concentration was measured and diluted to 107 CFU/mL with culture medium for use.
# The prepared fresh bacterial suspension was diluted to 105 CFU/mL and added to the 96-well plate with 90 μL of the bacterial suspension per well. The plate was incubated at 37° C. with a normal oxygen concentration for 24 to 48 hours (Propionibacterium acnes was cultured anaerobically at 37° C. for 24 to 48 hours in an anaerobic bag). The absorbance at 630 nm was measured using a microplate reader, and the degree of turbidity was observed by the naked eye.
# (iv) Repetition of Operations: The Operations in (iii) were Repeated Twice, and the Decision to Perform a Third Repetition was Based on the Reproducibility of the Experiment.
# Helicobacter pylori = test: Inhibitory effect of AMP-33 on Helicobacter pylori; conditions: 5 and 10 μg/mL, 48 hours
# Protocol: (1) Helicobacter pylori was cultured to the logarithmic phase. Then, 4.5 mL of the bacterial solution was centrifuged at 5,000 g for 6 minutes, and the organisms were resuspended in Wilkins-Chalgren medium. The concentration of the bacterial solution was adjusted to approximately 2× 10^5 CFU/mL using pre-configured McClure's turbidimetric tubes.
# (2) Helicobacter pylori was cultured in a microtiter plate (96 wells), and 50 μL of different AMP33 peptides were added (at concentrations of 5 and 10 μg/mL). Next, 100 μL of diluted Helicobacter pylori bacterial fluid was added, followed by 50 μL of medium until the final concentration reached 1×10^5 CFU/mL.
# (3) A blank control was provided with equal amounts of medium solution and bacterial solution as in the experimental group, with at least 3 replicates for each treatment group.
# (4) The 96-well plate was placed in a bacterial incubator at 37° C. and incubated at 150 rpm for 48 hours.
# [1] = test system: Candida albicans (ATCC: 14053); test: Inhibitory effect of AMP-33 on Candida albicans (viability, OD 630 nm); conditions: 8 μg/mL, 28 hours; repeated experiments
# Protocol: (1) Candida albicans was inoculated into YM liquid medium and cultured overnight under aerobic conditions at 28° C. and […] on a shaker.
# (2) 200 μL of YM liquid culture medium and a predetermined concentration of peptide AMP-33 were added to a 96-deep-well plate. Then, 10 μL of the Candida albicans solution was inoculated (mixed well before inoculation).
# (3) After incubating at […] for 28 hours on a shaking table at 28° C., the turbidity of the bacterial solution was observed. A volume of 100 μL of the solution was taken, and the OD at 630 nm was measured using an enzyme-linked immunosorbent assay (ELISA) reader (after multiple blows and mixing).
# [formula] • OD Measurement: OD value of the test peptide. • ODneg: OD value with no bacterial inoculation, containing only […] medium. • ODpos: OD value with bacterial inoculation and without inhibitors.
substance,measurement,setting,value
Example 2: LSKWLKKLGKLLAG (designated as AMP33),Minimum inhibitory concentration on Escherichia coli,Escherichia coli,50 µg/mL
same,inhibitory activity against H. pylori,Helicobacter pylori,approximately 100%
same,Viability of Candida albicans,[1],53.84 and 70.73 and 66.17
